Laboratory results: BigSolDB 2.1

O=C(N[C@@H](CO)C(=O)O)OCc1ccccc1
solubility (mole fraction)
Details | 283.15 K | 288.15 K | 293.15 K | 298.15 K | 303.15 K | 308.15 K | 313.15 K | 318.15 K | 323.15 K
in 2-butanone | 0.0333 | 0.037 | 0.0404 | 0.0456 | 0.052 | 0.0604 | 0.0726 | 0.0946 | 0.115
in acetone | 0.0708 | 0.0762 | 0.0835 | 0.0955 | 0.11 | 0.127 | 0.15 | 0.176 | 0.205
in acetonitrile | 0.00705 | 0.00841 | 0.00993 | 0.0126 | 0.0161 | 0.0213 | 0.0276 | 0.0385 | 0.0625
in ethyl acetate | 0.0143 | 0.0163 | 0.0189 | 0.0217 | 0.0257 | 0.0296 | 0.0353 | 0.0429 | 0.0541
in isobutanol | 0.0221 | 0.0246 | 0.0296 | 0.0365 | 0.0443 | 0.0552 | 0.0665 | 0.0912 | 0.115
in isopropanol | 0.0443 | 0.0505 | 0.0591 | 0.0707 | 0.0841 | 0.103 | 0.123 | 0.152 | 0.185
in methyl acetate | 0.0215 | 0.0262 | 0.0318 | 0.0365 | 0.0418 | 0.0477 | 0.0536 | 0.0635 | 0.0804
in n-butanol | 0.0279 | 0.0313 | 0.0388 | 0.0463 | 0.0562 | 0.067 | 0.0821 | 0.102 | 0.137
in n-pentanol | 0.0265 | 0.0286 | 0.0331 | 0.039 | 0.0455 | 0.0542 | 0.0628 | 0.0854 | 0.112
in n-propanol | 0.0496 | 0.0567 | 0.0645 | 0.0722 | 0.0838 | 0.0956 | 0.11 | 0.127 | 0.175
in sec-butanol | 0.0335 | 0.0385 | 0.0471 | 0.0585 | 0.0715 | 0.0862 | 0.109 | 0.13 | 0.159
in water | 0.00097 | 0.00116 | 0.00133 | 0.00165 | 0.002 | 0.00247 | 0.00309 | 0.00448 | 0.00737
